Test results: patent US20070049564A1 (Wyeth, priority 2005, published 2007)
Where two headings read alike, the source gives them in different places.

Tests used:
E. coli GC 2236 = experiment: MIC, broth microdilution; details: Escherichia coli
E. coli GC 2231 = experiment: MIC, broth microdilution; details: Escherichia coli
E. coli GC 2235 = experiment: MIC, broth microdilution; details: Escherichia coli
E. coli GC 2233 = experiment: MIC, broth microdilution; details: Escherichia coli
E. coli GC 2234 = experiment: MIC, broth microdilution; details: Escherichia coli
E. coli GC 2272 = experiment: MIC, broth microdilution; details: Escherichia coli
E. coli GC 4560 = experiment: MIC, broth microdilution; details: Escherichia coli
E. coli GC 6465 = experiment: MIC, broth microdilution; details: Escherichia coli
E. coli GC 2203 = experiment: MIC, broth microdilution; details: Escherichia coli
S. typhimurium GC 2172 = experiment: MIC, broth microdilution; details: Salmonella enterica, TYPHIMURIUM
S. aureus GC 1131 = experiment: MIC, broth microdilution; details: Staphylococcus aureus
S. aureus GC 6466 = experiment: MIC, broth microdilution; details: Staphylococcus aureus
S. aureus GC 6467 = experiment: MIC, broth microdilution; details: Staphylococcus aureus
S. aureus GC 1079 = experiment: MIC, broth microdilution; details: Staphylococcus aureus
S. epidermidis GC 4935 = experiment: MIC, broth microdilution; details: Staphylococcus epidermidis
E. faecalis GC 4555 = experiment: MIC, broth microdilution; details: Enterococcus faecalis
E. faecalis GC 2267 = experiment: MIC, broth microdilution; details: Enterococcus faecalis
E. faecium GC 4556 = experiment: MIC, broth microdilution; details: Enterococcus faecium
S. pneumoniae* GC 4465 = experiment: MIC, broth microdilution; details: Streptococcus pneumoniae
Staph. = experiment: Range of MIC for Staph. strains, including MRSA; details: Staphylococcus aureus
[1] = read-out: MINIMAL INHIBITORY CONCENTRATION MIC, Human Serum
[2] = read-out: MINIMAL INHIBITORY CONCENTRATION MIC, Mouse Serum
[3] = read-out: MINIMAL INHIBITORY CONCENTRATION MIC, Water

Measured: MIC

CCCCCCC(=O)OCOC(=O)N(CC(=O)Nc1cc(N(C)C)c2c(c1O)C(=O)C1=C(O)[C@]3(O)C(=O)C(C(N)=O)=C(O)[C@@H](N(C)C)[C@@H]3C[C@@H]1C2)C(C)(C)C [Example 48, ({[(2-{[(5aR,6aS,7S,10aS)-9-(aminocarbonyl)-4,7-bis(dimethylamino)-1,8,10a,11-tetrahydroxy-10,12-dioxo-5,5a,6,6a,7,10,10a,12-octahydrotetracen-2-yl]amino}-2-oxoethyl)(tert-butyl)amino]carbonyl}oxy)methyl heptanoate]
1 mg/L: E. coli GC 4560; GC4560, read-out: MINIMAL INHIBITORY CONCENTRATION MIC, Human Serum | S. aureus GC 6467; GC6467, read-out: MINIMAL INHIBITORY CONCENTRATION MIC, Mouse Serum | S. aureus GC 1079; GC1079, read-out: MINIMAL INHIBITORY CONCENTRATION MIC, Water | S. epidermidis GC 4935; GC4935, read-out: MINIMAL INHIBITORY CONCENTRATION MIC, Water | E. faecalis GC 2267; GC2267, read-out: MINIMAL INHIBITORY CONCENTRATION MIC, Human Serum | E. faecium GC 4556; GC4556, read-out: MINIMAL INHIBITORY CONCENTRATION MIC, Human Serum | E. faecium GC 4556; GC4556, read-out: MINIMAL INHIBITORY CONCENTRATION MIC, Water
0.12 mg/L: E. coli GC 4560; GC4560, read-out: MINIMAL INHIBITORY CONCENTRATION MIC, Mouse Serum | S. aureus GC 6466; GC6466, read-out: MINIMAL INHIBITORY CONCENTRATION MIC, Human Serum | S. aureus GC 6466; GC6466, read-out: MINIMAL INHIBITORY CONCENTRATION MIC, Mouse Serum | S. aureus GC 6466; GC6466, read-out: MINIMAL INHIBITORY CONCENTRATION MIC, Water | E. faecalis GC 4555; GC4555, read-out: MINIMAL INHIBITORY CONCENTRATION MIC, Mouse Serum | S. pneumoniae* GC 4465; [1] | S. pneumoniae* GC 4465; [2] | S. pneumoniae* GC 4465; [3]
4 mg/L: S. typhimurium GC 2172; [2] | E. faecalis GC 4555; GC4555, read-out: MINIMAL INHIBITORY CONCENTRATION MIC, Human Serum
8 mg/L: E. coli GC 2272; GC2272, read-out: MINIMAL INHIBITORY CONCENTRATION MIC, Human Serum
16 mg/L: E. coli GC 2236; GC2236, read-out: MINIMAL INHIBITORY CONCENTRATION MIC, Human Serum | E. coli GC 2231; GC2231, read-out: MINIMAL INHIBITORY CONCENTRATION MIC, Human Serum | E. coli GC 2235; GC2235, read-out: MINIMAL INHIBITORY CONCENTRATION MIC, Human Serum | E. coli GC 2233; GC2233, read-out: MINIMAL INHIBITORY CONCENTRATION MIC, Human Serum | E. coli GC 2234; GC2234, read-out: MINIMAL INHIBITORY CONCENTRATION MIC, Human Serum | E. coli GC 2203; GC2203, read-out: MINIMAL INHIBITORY CONCENTRATION MIC, Human Serum
0.12 to 2 mg/L: Staph.; MRSA, read-out: Range of MIC, Staph (Mouse Serum) | Staph.; MRSA, read-out: Range of MIC, Staph (Water) | Staph.; read-out: Minimum inhibitory concentration (MIC), Staph (Human Serum) | Staph.; read-out: Minimum inhibitory concentration (MIC), Staph (Water)
> 64 mg/L: E. coli GC 6465; GC6465, read-out: MINIMAL INHIBITORY CONCENTRATION MIC, Human Serum | E. coli GC 6465; GC6465, read-out: MINIMAL INHIBITORY CONCENTRATION MIC, Water | S. typhimurium GC 2172; [1] | S. typhimurium GC 2172; [3]
2 mg/L: E. coli GC 4560; GC4560, read-out: MINIMAL INHIBITORY CONCENTRATION MIC, Water | E. coli GC 6465; GC6465, read-out: MINIMAL INHIBITORY CONCENTRATION MIC, Mouse Serum | S. aureus GC 6467; GC6467, read-out: MINIMAL INHIBITORY CONCENTRATION MIC, Water | E. faecalis GC 4555; GC4555, read-out: MINIMAL INHIBITORY CONCENTRATION MIC, Water | E. faecalis GC 2267; GC2267, read-out: MINIMAL INHIBITORY CONCENTRATION MIC, Water
32 mg/L: E. coli GC 2235; GC2235, read-out: MINIMAL INHIBITORY CONCENTRATION MIC, Water
0.25 mg/L: E. coli GC 2236; GC2236, read-out: MINIMAL INHIBITORY CONCENTRATION MIC, Mouse Serum | E. coli GC 2235; GC2235, read-out: MINIMAL INHIBITORY CONCENTRATION MIC, Mouse Serum | E. coli GC 2233; GC2233, read-out: MINIMAL INHIBITORY CONCENTRATION MIC, Mouse Serum | E. coli GC 2272; GC2272, read-out: MINIMAL INHIBITORY CONCENTRATION MIC, Mouse Serum | E. coli GC 2203; GC2203, read-out: MINIMAL INHIBITORY CONCENTRATION MIC, Mouse Serum | S. aureus GC 1131; GC1131, read-out: MINIMAL INHIBITORY CONCENTRATION MIC, Human Serum | S. aureus GC 1131; GC1131, read-out: MINIMAL INHIBITORY CONCENTRATION MIC, Mouse Serum | S. aureus GC 1131; GC1131, read-out: MINIMAL INHIBITORY CONCENTRATION MIC, Water | S. aureus GC 1079; GC1079, read-out: MINIMAL INHIBITORY CONCENTRATION MIC, Human Serum | S. aureus GC 1079; GC1079, read-out: MINIMAL INHIBITORY CONCENTRATION MIC, Mouse Serum
0.5 mg/L: E. coli GC 2231; GC2231, read-out: MINIMAL INHIBITORY CONCENTRATION MIC, Mouse Serum | E. coli GC 2234; GC2234, read-out: MINIMAL INHIBITORY CONCENTRATION MIC, Mouse Serum | S. aureus GC 6467; GC6467, read-out: MINIMAL INHIBITORY CONCENTRATION MIC, Human Serum | S. epidermidis GC 4935; GC4935, read-out: MINIMAL INHIBITORY CONCENTRATION MIC, Human Serum | S. epidermidis GC 4935; GC4935, read-out: MINIMAL INHIBITORY CONCENTRATION MIC, Mouse Serum | E. faecalis GC 2267; GC2267, read-out: MINIMAL INHIBITORY CONCENTRATION MIC, Mouse Serum | E. faecium GC 4556; GC4556, read-out: MINIMAL INHIBITORY CONCENTRATION MIC, Mouse Serum
64 mg/L: E. coli GC 2236; GC2236, read-out: MINIMAL INHIBITORY CONCENTRATION MIC, Water | E. coli GC 2231; GC2231, read-out: MINIMAL INHIBITORY CONCENTRATION MIC, Water | E. coli GC 2233; GC2233, read-out: MINIMAL INHIBITORY CONCENTRATION MIC, Water | E. coli GC 2234; GC2234, read-out: MINIMAL INHIBITORY CONCENTRATION MIC, Water | E. coli GC 2272; GC2272, read-out: MINIMAL INHIBITORY CONCENTRATION MIC, Water | E. coli GC 2203; GC2203, read-out: MINIMAL INHIBITORY CONCENTRATION MIC, Water
